Measurements from BindingDB's records for PubMed 36324498 (Yangtze University, 2022).

Target: Tyrosine-protein kinase Tec (Homo sapiens) (UniProt P42680)
Test: Inhibition of TEC (unknown origin)

Sequence of Tyrosine-protein kinase Tec (Homo sapiens) (P42680 whole entry, looked up): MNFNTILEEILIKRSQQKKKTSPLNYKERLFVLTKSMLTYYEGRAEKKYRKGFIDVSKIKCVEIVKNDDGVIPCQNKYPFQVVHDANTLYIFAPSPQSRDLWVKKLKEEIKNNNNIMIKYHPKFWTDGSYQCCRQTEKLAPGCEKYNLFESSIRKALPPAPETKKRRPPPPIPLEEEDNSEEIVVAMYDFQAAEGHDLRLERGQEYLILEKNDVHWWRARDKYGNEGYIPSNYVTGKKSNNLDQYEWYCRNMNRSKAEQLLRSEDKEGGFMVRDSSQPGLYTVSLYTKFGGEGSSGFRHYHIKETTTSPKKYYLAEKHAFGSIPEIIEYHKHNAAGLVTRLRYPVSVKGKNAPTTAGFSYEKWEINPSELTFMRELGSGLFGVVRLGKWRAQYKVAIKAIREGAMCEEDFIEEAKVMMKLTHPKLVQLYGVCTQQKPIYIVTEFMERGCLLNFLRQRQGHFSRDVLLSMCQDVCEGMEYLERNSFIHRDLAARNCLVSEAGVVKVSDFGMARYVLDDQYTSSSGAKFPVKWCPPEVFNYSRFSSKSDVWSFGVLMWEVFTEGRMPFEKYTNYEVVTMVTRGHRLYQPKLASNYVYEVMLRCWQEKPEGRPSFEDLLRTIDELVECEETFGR

- IC50: 1.2 nM
SMILES: N#CN1CCC[C@@H](n2nc(-c3ccc(Oc4ccc(F)cc4F)cc3)c(C(N)=O)c2N)C1
